# In patent US20100249123A1, “NOVEL BENZAMIDE DERIVATIVES AS MODULATORS OF THE FOLLICLE STIMULATING HORMONE” (ADDEX PHARMA SA, priority 2007, published 2010):
# Biological target: T1, rat follicle stimulating hormone receptor (rFSHR) (Rattus norvegicus, UniProt P20395)
# T1 construct: expressed in transfected cells
# T1 sequence (P20395 18-692): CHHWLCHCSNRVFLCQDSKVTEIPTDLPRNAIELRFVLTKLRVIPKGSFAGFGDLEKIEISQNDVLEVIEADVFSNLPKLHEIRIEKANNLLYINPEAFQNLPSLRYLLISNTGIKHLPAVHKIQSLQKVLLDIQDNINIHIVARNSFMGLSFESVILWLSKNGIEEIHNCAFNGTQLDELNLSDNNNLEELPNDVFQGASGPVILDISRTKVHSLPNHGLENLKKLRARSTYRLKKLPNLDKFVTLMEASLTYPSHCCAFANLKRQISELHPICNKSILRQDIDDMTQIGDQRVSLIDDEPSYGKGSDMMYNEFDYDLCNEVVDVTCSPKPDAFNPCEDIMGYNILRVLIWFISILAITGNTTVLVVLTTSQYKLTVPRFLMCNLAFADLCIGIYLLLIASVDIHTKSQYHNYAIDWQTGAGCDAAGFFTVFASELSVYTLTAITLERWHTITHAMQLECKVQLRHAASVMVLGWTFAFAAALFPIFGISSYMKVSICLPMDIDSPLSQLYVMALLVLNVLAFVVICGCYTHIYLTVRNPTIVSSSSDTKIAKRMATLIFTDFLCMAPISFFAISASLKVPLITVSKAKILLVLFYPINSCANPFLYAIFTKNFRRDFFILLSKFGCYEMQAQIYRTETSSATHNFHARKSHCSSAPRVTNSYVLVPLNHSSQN
# Test: Intracellular cAMP measurement (HTRF) assay, antagonism of EC70 of hFSH
# Format: cell-based
# Conditions: HEK293 cells expressing rFSHR, 1 ng/ml hFSH (EC70), read-out: Class (IC50 to antagonise an EC70 of FSH receptors agonist such as hFSH)
# Text: Intracellular cAMP Measurement Assay
# The Intracellular cAMP measurement assay is a functional cell-based assay used to study GPCR function. This method relies on a Time-Resolved Fluorescence (HTRF) assay to measure the cAMP accumulation upon receptor-mediated Gs protein activation in cells expressing recombinant GPCR or in cells from native tissues. In brief, this method is a competitive immunoassay between native cAMP produced by cells and the cAMP labeled with a fluorescent tag. The endogenously produced cAMP competes with exogenous added d2-labelled cAMP for the cAMP binding site on a Eu3+ cryptate labelled anti-cAMP antibody. The d2-labelled cAMP and the Eu^3+ labelled antibody produces a basal fluroresence via HTRF and therefore an intracellular increase in unlabelled cAMP is detected as decrease in this signal. cAMP is one of the most important intracellular mediators. Its concentration in cells can be increased upon binding of many hormones to their receptors. The most studied pathway consists in the release of α-subunit GTP-binding proteins following ligand-receptor interaction, which in turn activates or inhibits the ATP/cAMP conversion function of adenylate cyclase enzyme. cAMP is then involved in many complex regulatory processes such as protein kinase activation or ion channel gating. This method is widely used to study receptor activation of G protein in cells over-expressing GPCRs or in native cells, including FSH receptors expressing cells (Gabriel et al., Assay Drug Dev. Technol., 1, 291-303, 2003).
# Transfection and cell culture: The cDNA encoding the rat follicle stimulating hormone receptor (rFSHR), (accession number NM_199237, NCBI Nucleotide database browser) was subcloned into an expression vector containing also the hygromycin resistance gene. Transfection of this vector into HEK293 cells with PolyFect reagent (Qiagen) according to supplier's protocol, and hygromycin treatment allowed selection of antibiotic resistant cells which had integrated stably one or more copies of the plasmid. Positive cellular clones expressing rFSHR were identified in a functional assay measuring cAMP production in cells following stimulation by addition of purified human follicle stimulating hormone (hFSH).
# HTRF cAMP assay: On the day of the experiment, cells were detached from the Petri dish and distributed in a low volume, black-walled 384-well plate at a density of 5,000 cells/well in an assay buffer containing 1 mM IBMX to prevent cAMP degradation by cytoplasmic phosphodiesterases. The determination of the cAMP accumulation was performed using an HTRF assay (Trinquet et al., Anal. Biochem., 358, 126-135, 2006). Briefly, cells were incubated for 3 min in the presence of increasing concentrations of negative allosteric modulators (from 1 nM to 60 μM) and then 30 min in the presence of 1 ng/ml of hFSH, an agonist of rat FSH receptor, that has been determined in previous experiments to correspond to the EC70, a concentration that gives 70% of the maximal response of the agonist, and is in accordance with published data (Fox et al., Mol. Endocrin., 15, 378-389, 2001). […] Cells were then lysed by adding the HTRF assay components, the europium cryptate-labeled anti-cAMP antibody, and the XL665-labeled cAMP analog, previously diluted in a HEPES buffer (50 mM, pH 7.0) containing 0.8 M potassium fluoride, 0.2% (w/v) BSA, and 1% (v/v) Triton X-100, a percentage of detergent that ensure complete cell lysis. Assay was then incubated for 1 hr at room temperature, and HTRF signal was measured after excitation at 337 nm, and dual emission at 620 and 665 nm, using a RubyStar fluorimeter (BMG Labtechnologies). Moreover, the fluorescence ratio of an appropriate range of known concentrations of cAMP standards was also included on each assay plate to produce a standard cAMP curve. […]
row,Molecule,IC50 [µM]
1,"COc1ccc(C(=O)Nc2ccc(C(C)(C)C#N)c(C)c2)cc1OC [Example 95, N-[4-(Cyano-dimethyl-methyl)-3-methyl-phenyl]-3,4-dimethoxy-benzamide]",0.15 to 0.4
2,"CCc1cc(NC(=O)c2ccc(OC)c(OC)c2)ccc1C(C)(C)C#N [Example 133, N-[4-(Cyano-dimethyl-methyl)-3-ethyl-phenyl]-3,4-dimethoxy-benzamide]",< 0.15
3,COc1ccc(C(=O)Nc2ccc(C(C)(C)CNC(=O)c3cc(C)[nH]n3)cc2)cc1OC [Example 127],0.4 to 1
4,COc1ccc(C(=O)Nc2ccc(C(C)(C)CNC(=O)c3ccco3)cc2)cc1OC [Example 32],0.15 to 0.4
5,"COc1ccc(C(=O)Nc2ccc(C(C)(C)CNC(=O)c3cn(C(C)=O)c4ccccc34)cc2)cc1OC [Example 104, 1-Acetyl-1H-indole-3-carboxylic acid{2-[4-(3,4-dimethoxy-benzoylamino)-phenyl]-2-methyl-propyl}-amide]",0.4 to 1
6,"COc1ccc(C(=O)Nc2ccc(C(C)(C)CNC(=O)c3nn(C)c4ccccc34)c(Cl)c2)cc1OC [Example 121, 1-Methyl-1H-indazole-3-carboxylic acid{2-[2-chloro-4-(3,4-dimethoxy-benzoylamino)-phenyl]-2-methyl-propyl}-amide]",0.15 to 0.4
7,"1H-Pyrrolo[2,3-b]pyridine-5-carboxylic acid {2-[4-(3,4-dimethoxy-benzoylamino)-phenyl]-2-methyl-propyl}-amide [Example 201]",0.15 to 0.4
8,"COCCn1cc(C(=O)NCC(C)(C)c2ccc(NC(=O)c3ccc(OC)c(OC)c3)cc2)c2cc(F)ccc21 [Example 191, 5-Fluoro-1-(2-methoxy-ethyl)-1H-indole-3-carboxylic acid {2-[4-(3,4-dimethoxy-benzoylamino)-phenyl]-2-methyl-propyl}-amide]",0.15 to 0.4
9,"COc1ccc(C(=O)Nc2ccc(C(C)(C)C#N)c(-c3cccnc3)c2)cc1OC [Example 132, N-[4-(Cyano-dimethyl-methyl)-3-pyridin-3-yl-phenyl]-3,4-dimethoxy-benzamide]",0.15 to 0.4
10,COc1ccc(C(=O)Nc2ccc(C(C)(C)CNC(=O)c3cnn4ccccc34)cc2)cc1OC [Example 41],< 0.15
11,"COc1ccc(C(=O)Nc2ccc(C(C)(C)CNC(=O)c3n[nH]c4ccccc34)c(C)c2)cc1OC [Example 109, 1H-Indazole-3-carboxylic acid{2-[4-(3,4-dimethoxy-benzoylamino)-2-methyl-phenyl]-2-methyl-propyl}-amide]",0.15 to 0.4
12,"COc1ccc(C(=O)Nc2ccc(C(C)(C)CNC(=O)c3n[nH]c4ccccc34)c(Cl)c2)cc1OC [Example 113, 1H-Indazole-3-carboxylic acid{2-[2-chloro-4-(3,4-dimethoxy-benzoylamino)-phenyl]-2-methyl-propyl}-amide]",0.15 to 0.4
13,"COc1ccc(C(=O)Nc2ccc(Cl)c(C(C)(C)C#N)c2)cc1OC [Example 125, N-[4-Chloro-3-(cyano-dimethyl-methyl)-phenyl]-3,4-dimethoxy-benzamide]",≥ 1
14,"COc1ccc(C(=O)Nc2ccc(C(C)(C)CNC(=O)c3nn(C)c4ccccc34)c(C)c2)cc1OC [Example 110, 1-Methyl-1H-indazole-3-carboxylic acid{2-[4-(3,4-dimethoxy-benzoylamino)-2-methyl-phenyl]-2-methyl-propyl}-amide]",0.15 to 0.4

# Now from value to molecule:
row,IC50 [µM],Molecule
1,≥ 1,"COc1ccc(C(=O)Nc2ccc(C(C)(C)CNC(=O)c3cn(CCCN(C)C)c4ccc(F)cc34)cc2)cc1OC [Example 192, 1-(3-Dimethylamino-propyl)-5-fluoro-1H-indole-3-carboxylic acid {2-[4-(3,4-dimethoxy-benzoylamino)-phenyl]-2-methyl-propyl}-amide]"
2,0.15 to 0.4,"COc1ccc(C(=O)Nc2cccc(C(C)(C)CNC(=O)c3cnc4ccccn34)c2)cc1OC [Example 203, Imidazo[1,2-a]pyridine-3-carboxylic acid {2-[3-(3,4-dimethoxy-benzoylamino)-phenyl]-2-methyl-propyl}-amide]"
3,0.15 to 0.4,COc1ccc(C(=O)Nc2ccc(C(C)(C)CNC(=O)c3nc4ccncc4[nH]3)cc2)cc1OC [Example 214]
4,< 0.15,COc1ccc(C(=O)Nc2ccc(C(C)(C)CNC(=O)c3cnc4ccc(F)cn34)cc2)cc1OC [Example 211]
5,≥ 1,COc1ccc(C(=O)Nc2ccc(C(C)(C)CNC(=O)c3ccc4c(c3)nc(C)n4C)cc2)cc1OC [Example 209]
6,0.4 to 1,COc1ccc(C(=O)Nc2ccc(C(C)(C)CNC(=O)c3ccc4[nH]c(C)nc4c3)cc2)cc1OC [Example 208]
7,< 0.15,"COc1ccc(C(=O)Nc2ccc(C(C)(C)C#N)c(-c3cccs3)c2)cc1OC [Example 206, N-[4-(Cyano-dimethyl-methyl)-3-thiophen-2-yl-phenyl]-3,4-dimethoxy-benzamide]"
8,0.15 to 0.4,COc1ccc(C(=O)Nc2ccc(C(C)(C)CNC(=O)c3ccc4[nH]ccc4c3)cc2)cc1OC [Example 142]
9,0.4 to 1,"COc1ccc(C(=O)Nc2ccc(C(C)(C)C#N)c(-c3cnn(C)c3)c2)cc1OC [Example 205, N-[4-(Cyano-dimethyl-methyl)-3-(1-methyl-1H-pyrazol-4-yl)-phenyl]-3,4-dimethoxy-benzamide]"
10,≥ 1,"COc1ccc(C(=O)Nc2ccc(C(C)(C)C#N)c(-c3ccccn3)c2)cc1OC [Example 183, N-[4-(Cyano-dimethyl-methyl)-3-pyridin-2-yl-phenyl]-3,4-dimethoxy-benzamide]"
11,< 0.15,"CCc1cc(NC(=O)c2ccc(OC)c(OC)c2)ccc1C(C)(C)CNC(=O)c1cnc2[nH]cnc2c1 [Example 198, 3H-Imidazo[4,5-b]pyridine-6-carboxylic acid {2-[4-(3,4-dimethoxy-benzoylamino)-2-ethyl-phenyl]-2-methyl-propyl}-amide]"
12,0.4 to 1,COc1ccc(C(=O)Nc2ccc(C(C)(C)CNC(=O)c3cnc4ncccn34)cc2)cc1OC [Example 185]
13,≥ 1,"COc1ccc(C(=O)Nc2ccc(C(C)(C)C#N)c(N3CCOCC3)c2)cc1OC [Example 204, N-[4-(Cyano-dimethyl-methyl)-3-morpholin-4-yl-phenyl]-3,4-dimethoxy-benzamide]"
14,0.15 to 0.4,"COc1ccc(C(=O)Nc2ccc(C(C)(C)CCNC(=O)c3nc4cccnc4[nH]3)cc2)cc1OC [Example 196, 3H-Imidazo[4,5-b]pyridine-2-carboxylic acid {3-[4-(3,4-dimethoxy-benzoylamino)-phenyl]-3-methyl-butyl}-amide]"
